Test results published in patent US8273754B2, “Substituted 1H-pyrazolo[3,4-D]pyrimidine-6-amine compounds” (ArQule, Inc., priority 2008, dated 2012).
Read-outs that look alike come from different tables or passages of the source.

Key:
FGFR2 (N549H) = target: T1, FGFR2 (N549H) (Homo sapiens, UniProt P21802, N549H); assay: fluorescent ELISA assay for inhibitors of FGFR2 kinase; assay type: biochemical; details: Pyk2 peptide substrate, 60 minutes
T1 construct: purchased Millipore 14-742
Description: The enzymatic assays described herein are conducted according to the following procedures from commercially available reagents. In one non-limiting example, a fluorescent ELISA assay is used to identify and characterize inhibitors of FGFR2 kinase as described herein. This heterogeneous assay utilizes a biotinylated peptide with a tyrosine motif as a substrate and an anti-phospho-tyrosine antibody to measure phosphorylation of the substrate. The reaction is initiated by adding the test compound, 37 μM Pyk2 substrate (Midwest Biotech, Cat. #MBT2383), 12.5 μM ATP (Roche, Cat. #11 140 965 001) and 0.5 μM FGFR2 enzyme (Millipore, Cat. #14-742) sequentially to a non-binding polypropylene V-well plate. All reagents are in an assay buffer consisting of: 50 mM Tris-HCL, 0.02 mg/ml BSA, 10 mM MgCl2, 0.1 mM Na3VO4, 1 mM EGTA, 75 μM ATP, 0.01% NP-40, 2 mM DTT and 10% glycerol. The reaction is incubated for 60 minutes. As the reaction proceeds, FGFR2 phosphorylates tyrosines in the peptide. The reaction mixture is then moved to a blocked streptavidin-coated Nunc Maxisorb plate (coated with 100 ng streptavidin from Pierce (Cat. #15-124) per well), allowing for the capture of the biotinylated peptide. Peptides are captured for 30 minutes at room temperature, the phosphorylation of peptides continues during this phase. The reaction is stopped by washing the streptavidin-coated plate 6 times with TBST. Phosphorylated peptide is detected by adding anti-phospho-tyrosine antibody (Cell Signaling, Cat. #9411, diluted 1:3000) to the streptavidin-coated plate. Unbound anti-phospho-tyrosine antibody is removed by washing the streptavidin-coated plate 6 times with TBST. Secondary detection is performed using alkaline phosphatase tagged goat anti-mouse antibody (Pierce, Cat. #31320, diluted 1:4000) for one hour. Unbound secondary antibody is removed by washing the streptavidin-coated plate 6 times with TBST. The fluorescent readout is initiated by adding to the streptavidin-coated plate Promega Attophos substrate (Promega, Cat. #S1000, dilution=6 mg/10 ml), which, when dephosphorylated by alkaline phosphatase, emits a fluorescent signal of 595 nm in wavelength when excited by a signal of 400 nm in wavelength. The reading of the 595 nm signal is done on the Perkin Elmer Envision system. Compounds which prevent FGFR2 from phosphorylating the peptide result in a lower fluorescent signal. The 595 nm fluorescent signal is directly proportional to the activity of FGFR2. Thus, the inhibition of FGFR2 by compounds is monitored by the decrease in the 595 nm fluorescent signal.

cancer cells = assay: MTS cell growth inhibition assay (72 hours); assay type: cell-based
How it was run: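 Cells in DMEM with 1% FBS, seeded 18 h, then compound-treated 72 h at 37 °C. Viability by MTS/PMS for 4 h, formazan absorbance at 492 nm; IC50 taken as concentration giving 50% absorbance drop, activity banded by percent inhibition.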

[1] = Homo sapiens, DLD-1, 72 h, DLD-1 cells, read-out: DLD-1 MTS 72 hr at 10 μM
[2] = Homo sapiens, KATO III, 72 h, KATO III cells, read-out: KATO III MTS 72 hr at 10 μM
[3] = Homo sapiens, MDA-MB-231, 72 h, MDA-MB-231 cells, read-out: MDA-MB-231 MTS 72 hr at 10 μM
[4] = Homo sapiens, NCI-H1299, 72 h, NCI-H1299 cells, read-out: NCI-H1299 MTS 72 hr at 10 μM
[5] = PaCa-2, 72 h, PACA-2 cells, read-out: PACA-2 MTS 72 hr at 10 μM

T1 sequence (P21802 22-821 N549H): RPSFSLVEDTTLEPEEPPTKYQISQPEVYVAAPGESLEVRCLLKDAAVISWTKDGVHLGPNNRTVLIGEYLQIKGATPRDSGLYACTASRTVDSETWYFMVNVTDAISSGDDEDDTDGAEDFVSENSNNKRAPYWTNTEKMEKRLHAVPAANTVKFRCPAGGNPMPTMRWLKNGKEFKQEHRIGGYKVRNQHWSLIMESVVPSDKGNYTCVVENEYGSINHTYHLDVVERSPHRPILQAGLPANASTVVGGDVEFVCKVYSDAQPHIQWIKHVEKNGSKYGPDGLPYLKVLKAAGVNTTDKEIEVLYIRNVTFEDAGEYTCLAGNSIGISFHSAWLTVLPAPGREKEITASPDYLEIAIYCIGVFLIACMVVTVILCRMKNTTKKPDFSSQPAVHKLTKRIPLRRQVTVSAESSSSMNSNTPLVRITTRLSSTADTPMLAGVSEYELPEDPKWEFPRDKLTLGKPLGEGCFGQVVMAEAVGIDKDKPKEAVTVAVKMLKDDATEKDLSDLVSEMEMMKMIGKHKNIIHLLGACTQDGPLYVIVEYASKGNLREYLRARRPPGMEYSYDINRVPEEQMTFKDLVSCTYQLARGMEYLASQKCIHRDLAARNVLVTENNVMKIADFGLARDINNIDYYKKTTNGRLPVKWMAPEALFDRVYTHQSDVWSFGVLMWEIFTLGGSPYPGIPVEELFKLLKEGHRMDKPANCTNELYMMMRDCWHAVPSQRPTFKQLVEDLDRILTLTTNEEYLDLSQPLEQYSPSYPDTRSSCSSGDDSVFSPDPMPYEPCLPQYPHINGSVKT

| Compound | IC50 (FGFR2 (N549H)) | inhibition at 10 µM (cancer cells; [1]) | inhibition at 10 µM (cancer cells; [2]) | inhibition at 10 µM (cancer cells; [3]) | inhibition at 10 µM (cancer cells; [4]) | inhibition at 10 µM (cancer cells; [5]) |
| --- | --- | --- | --- | --- | --- | --- |
| Cc1cccc(CN2CC(Nc3nc(N)nc4[nH]ncc34)Cc3ccccc32)c1 (stereo not drawn) [Compound 122, N4-[1-(3-methylbenzyl)-1,2,3,4-tetrahydroquinolin-3-yl]-1H-pyrazolo[3,4-d]pyrimidine-4,6-diamine] | 1670 nM | < 50% | 50 to 79% | < 50% | < 50% | 50 to 79% |
| Nc1nc(NC2Cc3ccccc3N(S(=O)(=O)c3ccc(NC(=O)Nc4ccc(Cl)c(C(F)(F)F)c4)cc3)C2)c2cn[nH]c2n1 (stereo not drawn) [Compound 222, 1-(4-(3-(6-amino-1H-pyrazolo[3,4-d]pyrimidin-4-ylamino)-3,4-dihydroquinolin-1(2H)-ylsulfonyl)phenyl)-3-(4-chloro-3-(trifluromethyl)phenyl)urea] | > 300 nM | > 79% | > 79% | > 79% | > 79% | > 79% |
| CN(c1nc(N)nc2[nH]ncc12)C1Cc2ccccc2N(Cc2ccc(Cl)c(Cl)c2)C1 (stereo not drawn) [Compound 10, N^4-(1-(3,4-dichlorobenzyl)-1,2,3,4-tetrahydroquinolin-3-yl)-N^4-methyl-1H-pyrazolo[3,4-d]pyrimidine-4,6-diamine] | 1550 nM | < 50% | 50 to 79% | < 50% | < 50% | < 50% |
| Nc1nc(NC2Cc3ccccc3N(S(=O)(=O)c3cccc(C(F)(F)F)c3)C2)c2cn[nH]c2n1 (stereo not drawn) [Compound 19, N4-(1-(3-(trifluoromethyl)phenylsulfonyl)-1,2,3,4-tetrahydroquinolin-3-yl)-1H-pyrazolo[3,4-d]pyrimidine-4,6-diamine] | 1180 nM | < 50% | < 50% | < 50% | < 50% | < 50% |
| Nc1nc(NC2Cc3ccccc3N(S(=O)(=O)c3cccc(Cl)c3)C2)c2cn[nH]c2n1 (stereo not drawn) [Compound 26, N4-(1-(3-chlorophenylsulfonyl)-1,2,3,4-tetrahydroquinolin-3-yl)-1H-pyrazolo[3,4-d]pyrimidine-4,6-diamine] | 30 nM | > 79% | > 79% | 50 to 79% | < 50% | > 79% |
| Nc1nc(NC2Cc3ccccc3N(S(=O)(=O)c3cccc(F)c3)C2)c2cn[nH]c2n1 (stereo not drawn) [Compound 18, N4-(1-(3-fluorophenylsulfonyl)-1,2,3,4-tetrahydroquinolin-3-yl)-1H-pyrazolo[3,4-d]pyrimidine-4,6-diamine] | 370 nM | < 50% | < 50% | < 50% | < 50% | < 50% |
| Nc1nc(NC2Cc3ccccc3N(S(=O)(=O)c3ccccc3F)C2)c2cn[nH]c2n1 (stereo not drawn) [Compound 45, N4-(1-(2-fluorophenylsulfonyl)-1,2,3,4-tetrahydroquinolin-3-yl)-1H-pyrazolo[3,4-d]pyrimidine-4,6-diamine] | 380 nM | < 50% | < 50% | < 50% | < 50% | < 50% |
| CC(=O)c1ccc(S(=O)(=O)N2CC(Nc3nc(N)nc4[nH]ncc34)Cc3ccccc32)cc1 (stereo not drawn) [Compound 48, 1-(4-(3-(6-amino-1H-pyrazolo[3,4-d]pyrimidin-4-ylamino)-3,4-dihydroquinolin-1(2H)-ylsulfonyl)phenyl)ethanone] | 17200 nM | > 79% | 50 to 79% | > 79% | < 50% | > 79% |
| CC(C)c1ccc(S(=O)(=O)N2CC(Nc3nc(N)nc4[nH]ncc34)Cc3ccccc32)cc1 (stereo not drawn) [Compound 56, N4-(1-(4-isopropylphenylsulfonyl)-1,2,3,4-tetrahydroquinolin-3-yl)-1H-pyrazolo[3,4-d]pyrimidine-4,6-diamine] | > 30000 nM | < 50% | < 50% | < 50% | < 50% | < 50% |
| Cc1ccccc1CN1CC(Nc2nc(N)nc3[nH]ncc23)Cc2ccccc21 (stereo not drawn) [Compound 129, N4-[1-(2-methylbenzyl)-1,2,3,4-tetrahydroquinolin-3-yl]-1H-pyrazolo[3,4-d]pyrimidine-4,6-diamine] | 16200 nM | < 50% | 50 to 79% | < 50% | < 50% | < 50% |
| Nc1nc(NC2Cc3ccccc3N(S(=O)(=O)c3ccc(Cl)c(Cl)c3)C2)c2cn[nH]c2n1 (stereo not drawn) [Compound 39, N4-(1-(3,4-dichlorophenylsulfonyl)-1,2,3,4-tetrahydroquinolin-3-yl)-1H-pyrazolo[3,4-d]pyrimidine-4,6-diamine] | 880 nM | < 50% | 50 to 79% | < 50% | < 50% | < 50% |
| COc1ccc(S(=O)(=O)N2CC(Nc3nc(N)nc4[nH]ncc34)Cc3ccccc32)cc1 (stereo not drawn) [Compound 42, N4-(1-(4-methoxyphenylsulfonyl)-1,2,3,4-tetrahydroquinolin-3-yl)-1H-pyrazolo[3,4-d]pyrimidine-4,6-diamine] | 15900 nM | < 50% | 50 to 79% | < 50% | < 50% | < 50% |
| COc1ccc(CN2CC(Nc3nc(N)nc4[nH]ncc34)Cc3ccccc32)cc1OC (stereo not drawn) [Compound 123, N4-[1-(3,4-dimethoxybenzyl)-1,2,3,4-tetrahydroquinolin-3-yl]-1H-pyrazolo[3,4-d]pyrimidine-4,6-diamine] | > 30000 nM | < 50% | < 50% | < 50% | < 50% | < 50% |
| Nc1nc(NC2Cc3ccccc3N(Cc3cccc(Cl)c3)C2)c2cn[nH]c2n1 (stereo not drawn) [Compound 126, N4-[1-(3-chlorobenzyl)-1,2,3,4-tetrahydroquinolin-3-yl]-1H-pyrazolo[3,4-d]pyrimidine-4,6-diamine] | 1190 nM | < 50% | 50 to 79% | < 50% | < 50% | 50 to 79% |
| COc1ccc(OC)c(CN2CC(Nc3nc(N)nc4[nH]ncc34)Cc3ccccc32)c1 (stereo not drawn) [Compound 121, N4-(1-(2,5-dimethoxybenzyl)-1,2,3,4-tetrahydroquinolin-3-yl)-1H-pyrazolo[3,4-d]pyrimidine-4,6-diamine] | > 30000 nM | < 50% | > 79% | < 50% | < 50% | < 50% |
| Nc1nc(NC2Cc3ccccc3N(Cc3ccc(F)cc3)C2)c2cn[nH]c2n1 (stereo not drawn) [Compound 6, N^4-(1-(4-fluorobenzyl)-1,2,3,4-tetrahydroquinolin-3-yl)-1H-pyrazolo[3,4-d]pyrimidine-4,6-diamine] | 900 nM | > 79% | > 79% | > 79% | > 79% | > 79% |
| Nc1nc(NC2Cc3ccccc3N(Cc3ccc(Cl)c(Cl)c3)C2)c2cn[nH]c2n1 (stereo not drawn) [Compound 7, N^4-(1-(3,4-dichlorobenzyl)-1,2,3,4-tetrahydroquinolin-3-yl)-1H-pyrazolo[3,4-d]pyrimidine-4,6-diamine] | 3970 nM | > 79% | > 79% | > 79% | > 79% | > 79% |
